Source: article PMC9603750, “Chalcone-Acridine Hybrid Suppresses Melanoma Cell Progression via G2/M Cell Cycle Arrest, DNA Damage, Apoptosis, and Modulation of MAP Kinases Activity” (International Journal of Molecular Sciences, 2022)

How the values were obtained:
[1] = tested on: BLM melanoma cells; assay: Flow cytometric analysis of mitochondrial membrane potential (TMRE); format: cell-based, human; settings: 1C 20 μmol/L, 24, 48 and 72 h
Protocol: (§1) The A2058 and BLM melanoma cells were seeded 1 × 10^6 in Petri dishes with complete growth medium and cultivated for 24 h. After cell cultivation, the A2058 cells were treated with chalcone 1C at 10 μmol/L concentration, BLM cells at 20 μmol/L concentration and both melanoma cell lines were treated with DMSO as the negative control at the same concentrations for 24, 48 and 72 h. Adherent and floating cells were harvested, pelleted by centrifugation at 1200 rpm for 5 min. Pellets were resuspended in washing buffer (PBS) and divided for a particular analysis. Afterwards, cells were prepared according to assay kit protocols or fixed with cold 4% paraformaldehyde (15 min) and permeabilized with 90% methanol (10 min on ice) with washing steps (PBS) and stained prior to analysis (Table 5) for 15 min in the dark at room temperature. Fluorescence was detected using a BD FACSCalibur^TM Flow Cytometer (Becton Dickinson, San Jose, CA, USA).

[2] = tested on: A2058 melanoma cells; assay: as above; format: cell-based, human; settings: A2058, 1C 10 μmol/L, 24, 48 and 72 h
Protocol: as §1

[3] = tested on: BLM melanoma cells; assay: Apoptosis detection, Annexin V/PI staining; format: cell-based, human; settings: 1C 20 μmol/L
Text: (§2) Phosphatidylserine (PS) is an anionic phospholipid located on the cytoplasmic surface of the plasma membrane in cells with intact membranes. The externalization of PS from the inner to outer surface of the lipid bilayer of plasma membrane is a typical marker of apoptosis in the early stages. Annexin V/PI double staining is a method for dividing cells into populations of living (An^−/PI^− Q3), early apoptotic (An^+/PI^− Q4), late apoptotic/necrotic (An^+/PI^+ Q2) and dead (An^−/PI^+ Q1). […] Furthermore, the concomitant decrease of living cells and the increased number of dead cells were also observed in a time-dependent pattern (Table 4, Figure 4).
(§3) To perform apoptosis detection, A2058 and BLM melanoma cells were seeded in Petri dishes at a density of 1 × 10^5/dish and treated with chalcone 1C and DMSO as the negative control at the same concentrations for 24, 48 and 72 h. In the next step, adherent and floating melanoma cells were harvested, centrifuged and pellets were resuspended in washing buffer (PBS). Resuspended melanoma cells were stained with Annexin V-Alexa Fluor® 647 antibody (Thermo Scientific, Rockford, IL, USA) in binding buffer for 20 min in the dark at room temperature. Finally, melanoma cells were washed, stained with 1 μL of propidium iodide (final concentration 25 μg/mL) for 5 min and analysed using a BD FACSCalibur^TM Flow Cytometer (Becton Dickinson, San Jose, CA, USA). Three independent analyses were performed.

[4] = tested on: A2058 melanoma cells; assay: Apoptosis detection, Annexin V/PI staining; format: cell-based, human; settings: A2058, 1C 10 μmol/L
Text: as §2, §3

[5] = tested on: MCF-10A; assay: BrdU cell proliferation assay; format: cell-based; settings: Homo sapiens; MCF-10A noncancer cell line
[6] = tested on: BLM melanoma cells; assay: Western blot analyses of protein expression/phosphorylation; format: cell-based, human
Protocol: (§4) Melanoma cells (A2058 and BLM) were treated with the tested chalcone 1C (10 μM and 20 μM) for 24, 48 and 72 h. Protein lysates from melanoma cells were prepared using a Laemmle lysis buffer containing glycerol, 1M Tris/HCl (pH 6.8), 20% sodium dodecyl sulfate (SDS), deionized H20, phosphatase and protease inhibitors (Sigma-Aldrich) and a sonication process. The protein concentrations were determined by the Pierce® BCA Protein Assay Kit (Thermo Scientific, Rockford, IL, USA) and measured by an automated Cytation™ 3 Cell Imaging Multi-Mode Reader (Biotek) at a wavelength of 570 nm. Proteins (25–40 μg of sample per well) were separated on SDS-PAA gel (12%) at 100 V for 3 h and transferred to a polyvinylidene difluoride (PVDF) membrane using the iBlot™ 2 Dry Blotting System (Invitrogen, Carlsbad, CA, USA). Membranes with transferred proteins were blocked in 5% BSA (bovine serum albumin; SERVA, Heidelberg, Germany) or 5% non-fat dry milk (Cell Signaling Technology®, Danvers, MA, USA) in TBS-Tween (pH 7.4) for 1 h at room temperature to minimise non-specific binding. Blocking was followed by incubation with primary antibodies (Table 6) overnight at 4 °C. The next day, membranes were washed in TBS-Tween (3 × 5 min) and incubated with the corresponding horseradish peroxidase (HRP)-conjugated anti-mouse or anti-rabbit secondary antibody for 1 h at room temperature. After incubation, membranes were washed again in TBS-Tween (3 × 5 min) and the expression of proteins was detected using the MF-ChemiBIS 2.0 Imaging System (DNR BIO-Imaging Systems, Jerusalem, Israel) with chemiluminescent ECL substrate (Thermo Scientific, Rockford, IL, USA). A densitometric analysis of Western Blot (WB) results was performed using the Image Studio™ Lite Software (LI-COR Biosciences, Lincoln, NE, USA). Equal loading was verified by using the β-actin antibody. Three independent analyses were performed.

[7] = tested on: A2058 melanoma cells; assay: as above; format: cell-based, human
Protocol: as §4

[8] = 1C 20 μmol/L, maximum after 72 h
[9] = A2058, 1C 10 μmol/L, 24, 48 and 72 h

For `COc1cccc(OC)c1C(=O)/C=C/c1c2ccccc2nc2ccccc12` [Compound 1C, (2E)-3-(acridin-9-yl)-1-(2,6-dimethoxyphenyl)prop-2-en-1-one], which “Cells with reduced mitochondrial membrane potential (MMP)” value [1] is on record?
Its value is “significant increase”.

What about the “Cells with reduced mitochondrial membrane potential (MMP)” value [2] of the same compound?
The value was “significant increase”.

And the “Dead An−/PI+” value ([3]; 24 h)?
Its value is 6.25 ± 0.20.

And the “Early Apo An+/PI−” value ([3]; 24 h)?
Its value is 12.96 ± 0.77.

And the “Late Apo An+/PI+” value ([3]; 24 h)?
Its value is 6.90 ± 0.09.

What about the “Live An−/PI−” value ([3]; 24 h) of the same compound?
Its value is 73.90 ± 0.49.

What about the “Dead An−/PI+” value ([3]; 48 h) of the same compound?
The value was 5.81 ± 0.86.

What about the “Early Apo An+/PI−” value ([3]; 48 h) of the same compound?
The value was 20.25 ± 1.27.

And the “Late Apo An+/PI+” value ([3]; 48 h)?
The value was 12.40 ± 0.49.

And the “Live An−/PI−” value ([3]; 48 h)?
The value was 61.50 ± 2.61.

And the “Dead An−/PI+” value ([3]; 72 h)?
Its value is 5.90 ± 1.47.

What about the “Early Apo An+/PI−” value ([3]; 72 h) of the same compound?
Its value is 25.95 ± 3.80.

And the “Late Apo An+/PI+” value ([3]; 72 h)?
The value was 28.55 ± 3.23.

What about the “Live An−/PI−” value ([3]; 72 h) of the same compound?
The value was 39.60 ± 0.90.

And the “Dead An−/PI+” value ([4]; 24 h)?
Its value is 3.41 ± 0.46.

What about the “Early Apo An+/PI−” value ([4]; 24 h) of the same compound?
Its value is 7.53 ± 1.17.

What about the “Late Apo An+/PI+” value ([4]; 24 h) of the same compound?
The value was 4.22 ± 0.47.

What about the “Live An−/PI−” value ([4]; 24 h) of the same compound?
The value was 84.80 ± 0.24.

And the “Dead An−/PI+” value ([4]; 48 h)?
The value was 5.94 ± 0.52.

And the “Early Apo An+/PI−” value ([4]; 48 h)?
Its value is 11.52 ± 0.42.

And the “Late Apo An+/PI+” value ([4]; 48 h)?
The value was 13.85 ± 2.57.

What about the “Live An−/PI−” value ([4]; 48 h) of the same compound?
Its value is 68.70 ± 1.63.

And the “Dead An−/PI+” value ([4]; 72 h)?
The value was 11.65 ± 1.43.

What about the “Early Apo An+/PI−” value ([4]; 72 h) of the same compound?
Its value is 13.30 ± 1.71.

And the “Late Apo An+/PI+” value ([4]; 72 h)?
Its value is 23.05 ± 4.94.

And the “Live An−/PI−” value ([4]; 72 h)?
Its value is 52.00 ± 5.23.

What about the IC50 [5] of the same compound?
Its IC50 is 32.9 ± 1.56 µM.

What about the “Expression of p21 protein (WB)” value ([6]; 1C 20 μmol/L) of the same compound?
Its value is “showed an increase and maintained a trend”.

And the “Levels of antiapoptotic protein Bcl-xL (WB)” value ([6]; 1C 20 μmol/L)?
Its value is “decreased levels”.

What about the “Phosphorylation of Bad (WB)” value ([6]; 1C 20 μmol/L) of the same compound?
The value was “increasing up to 48 h”.

What about the “Phosphorylation of Bcl-2 (WB)” value ([6]; 1C 20 μmol/L) of the same compound?
Its value is “increased up to the 72 h time point”.

And the “Phosphorylation of Chk1 (WB)” value ([6]; 1C 20 μmol/L)?
Its value is “consilient trend of Chk1 phosphorylation”.

What about the “Phosphorylation of ERK1/2 (WB)” value ([6]; 1C 20 μmol/L) of the same compound?
Its value is “consilient trend of ERK1/2 phosphorylation”.

And the “Total Bcl-2 protein upregulated (WB)” value ([6]; 1C 20 μmol/L)?
The value was “it was not”.

What about the “p53 phosphorylation (WB)” value ([6]; 1C 20 μmol/L) of the same compound?
Its value is “phosphorylation increased late on 72 h”.

What about the “Levels of cleaved PARP (89 kDa) (WB)” value ([6]; 1C 20 μmol/L, 24, 48 and 72 h) of the same compound?
The value was “significantly increased”.

And the “Total p53 protein (WB)” value ([6]; 1C 20 μmol/L, 24, 48 and 72 h)?
The value was “maintenanted on basic levels as DMSO treated controls, with little decrease at 24 h”.

And the “Phospho-JNK (WB)” value ([6]; 1C 20 μmol/L, all tested timepoints)?
Its value is “significantly increased”.

What about the “Phosphorylated form of p38 MAPK (WB)” value ([6]; 1C 20 μmol/L, mainly after 48 h) of the same compound?
The value was “significantly increased”.

And the “Expression of α1C-tubulin (WB)” value [6, 8]?
The value was “upregulation”.

What about the “Phosphorylated cyclin B1 (WB)” value [6, 8] of the same compound?
Its value is “significant downregulation”.

What about the “Amounts of proapoptotic protein Bax and Bad (WB)” value ([6]; 1C 20 μmol/L, maximum at 48 h) of the same compound?
The value was “significantly increased”.

And the “Expression of α- and β-tubulin (WB)” value ([6]; 1C 20 μmol/L, time-dependent)?
Its value is “significant downregulation”.

What about the “Levels of antiapoptotic protein Bcl-xL (WB)” value ([7]; A2058, 1C 10 μmol/L) of the same compound?
The value was “decreased levels”.

What about the “Phosphorylation of Bad (WB)” value ([7]; A2058, 1C 10 μmol/L) of the same compound?
The value was “increasing up to 48 h”.

What about the “Phosphorylation of Bcl-2 (WB)” value ([7]; A2058, 1C 10 μmol/L) of the same compound?
Its value is “increased in A2058 up to 48 h and decreased at 72 h”.

And the “Phosphorylation of Chk1 (WB)” value ([7]; A2058, 1C 10 μmol/L, 24, 48 (maximum) and 72 h)?
The value was “significantly induced”.

And the “Levels of cleaved PARP (89 kDa) (WB)” value [7, 9]?
Its value is “significantly increased”.

And the “Total and phosphorylated p53 protein (WB)” value [7, 9]?
Its value is “significant increase”.

What about the “Expression of p21 protein (WB)” value ([7]; A2058, 1C 10 μmol/L, after 24 and 48 h) of the same compound?
The value was “significant increase”.

And the “Phospho-JNK (WB)” value ([7]; A2058, 1C 10 μmol/L, all tested timepoints)?
Its value is “significantly increased”.

What about the “Phosphorylated form of p38 MAPK (WB)” value ([7]; A2058, 1C 10 μmol/L, mainly after 48 h) of the same compound?
Its value is “significantly increased”.

And the “Expression of α-, α1C- and β-tubulin (WB)” value ([7]; A2058, 1C 10 μmol/L, maximum after 48 and 72 h)?
Its value is “significant upregulation”.

What about the “Phosphorylation of ERK1/2 (WB)” value ([7]; A2058, 1C 10 μmol/L, maximum after 48 h) of the same compound?
The value was “significantly increased”.

And the “Phosphorylated cyclin B1 (WB)” value ([7]; A2058, 1C 10 μmol/L, maximum after 72 h)?
The value was “significant downregulation”.

And the “Amounts of proapoptotic protein Bax and Bad (WB)” value ([7]; A2058, 1C 10 μmol/L, maximum at 48 h)?
Its value is “significantly increased”.

What about the “Total Bcl-2 protein (WB)” value ([7]; A2058, 1C 10 μmol/L, up to 48 h) of the same compound?
Its value is “upregulated”.
